Laboratory results reported in PMC7200204 (Ecotoxicology and environmental safety, 2020).
≈ marks a conversion by molar mass, not a printed value.

Test system: anti-1-NAP monoclonal antibody (mAb)
Assay: ciELISA with the obtained mAb under optimized conditions
Type: binding, mouse
Settings: for CR (cross-reactivity): CR (%) = [IC50 (NAP)/IC50 (cross-reactant)] × 100, n=3; for IC50: Table 2, optimized condition, n=3

Structure (SMILES)	CR (cross-reactivity) [%]	IC50 [µg/mL]
Oc1cc(O)c2ccccc2c1 [1,3-dihydroxy naphthalene]	6.9	0.178 (≈ 1.11 µM)
Oc1ccc(O)c2ccccc12 [1,4-dihydroxy naphthalene]	6.2	0.2007 (≈ 1.25 µM)
Oc1cccc2c(O)cccc12 [1,5-dihydroxy naphthalene]	14.3	0.0874 (≈ 0.546 µM)
Oc1ccc2c(O)cccc2c1 [1,6-dihydroxy naphthalene]	2.5	0.5028 (≈ 3.14 µM)
Oc1ccc2cccc(O)c2c1 [1,7-dihydroxy naphthalen]	1.4	0.8817 (≈ 5.5 µM)
Oc1cccc2cccc(O)c12 [1,8-dihydroxy naphthalene]	0.3	4.3034 (≈ 26.9 µM)
Oc1ccc2cc(O)ccc2c1 [2,6-dihydroxy naphthalene]	0.4	2.8397 (≈ 17.7 µM)
CNC(=O)Oc1cccc2ccccc12 [Carbaryl]	4.2	0.3007 (≈ 1.49 µM)
Oc1cccc2ccccc12 [Hapten 1-naphthol, 1-naphthol]	100	0.0125 (≈ 0.0867 µM)
Oc1ccc2ccccc2c1 [Hapten 2-naphthol, 2-naphthol]	1.2	1.005 (≈ 6.97 µM)
